The values that follow come from patent US11179348B2, “Combination comprising pterostilbene for the treatment of cancer” (FUNDACIÓN UNIVERSIDAD CATÓLICA DE VALENCIA SAN VICENTE …, priority 2015, dated 2021).

One experiment concerns MeWo melanoma. The experiment in a line: In vivo growth of MeWo melanoma xenografts in nu/nu mice. Also on record: species or system human.
The next experiment relates to A549 lung adenocarcinoma. Description: In vivo growth of A549 lung cancer xenografts. Also noted: species or system human. To be noted: A549, day 35.
Experiment [1] has as its system MDA-MB-231 cells isolated from tumor-bearing mice. The experiment in a line: Chemosensitization of cultured MDA-MB-231 cells isolated from xenografts. The settings on record: 72 h-cultured, PL 0.1 μM, Chemo 0.25 μM PAC.PBP, Pter = in vivo pretreatment. Format: cell-based, human. How it is done: FIGS. 18-25. Effect of piperlongumine and I-BET762, as GSH depleting and chemosensitizing agents, in in vitro growing human melanoma, pancreatic, breast, lung, liver, prostate, ovarian, and colorectal cancer cells. Cancer cells, isolated from Pter-treated tumor-bearing mice, were cultured as indicated under Methods. Chemotherapy (0.25 μM PAC.PBP in A2058 melanoma and MDA-MB-231 breast carcinoma cells; 0.125 μM PAC.PBP and 25 μM GTB in AsPC-1 pancreatic cancer cells; 1 μM VRB and 15 μM cisPt in A459 lung carcinoma cells; 0.15 μM DXR in HepG2 hepatocellular carcinoma cells; 15 nM DCT in PC-3 prostate carcinoma cells; 0.15 μM PAC.PBP and 25 μM CarboPt in SK-OV-3 ovarian carcinoma cells; 3 μM 5-FU, 1 μM FA and 0.6 μM IRI in HT-29 colorectal carcinoma cells) was added to the cultured flasks 24 h after seeding. […]
Human A2058, MeWo and MelJuso melanoma cells, and mouse AtT-20 pituitary corticotroph tumor cells were from the American Type Culture Collection (ATCC). […] Cell numbers were determined using a Coulter Counter (Coulter Electronic Inc., Miami, Fla.). […] Cellular viability was assessed as previously reported (Mena, S. et al. Clin Cancer Res 13, 2658-2666 (2007)), by measuring trypan blue exclusion and leakage of lactate dehydrogenase activity. […]

Experiment [2] has as its system LNCaP prostate adenocarcinoma. The experiment in a line: In vivo growth of LNCaP prostate cancer xenografts. The settings on record: day 49. Also noted: species or system human.

Each structure is given as a SMILES string. Marks after values point to notes of the source that are not given here.

On to `COc1cc(/C=C/c2ccc(O)cc2)cc(OC)c1` [Pter, trans-3,5-dimethoxy-4′-hydroxystilbene], for which the Tumor vol. in the experiment on MeWo melanoma (MeWo-RFP, 35 days after inoculation, Pter 30 mg/kg i.v. every 48 h and/or CRC infusion 0.3 μg/h) is 167 ± 53* mm^3; with A549 lung adenocarcinoma, 223 ± 88* mm^3; in experiment [2], 757 ± 194 mm^3. Moreover, in the experiment with MeWo melanoma (Mewo, day 42, 30 mg Pter/kg i.v. every 48 h, vs controls), the “inhibition of tumor growth” value is reported as around 65%. Further, in experiment [1], the Viable cells is reported as 966 ± 177 ×10^6.
